The record followed here is BindingDB's records for doi:10.1021/acschembio.6b00012 (Broad Institute, 2016).

Experiment in all cases: HDAC Enzymatic Assay
What all share (conditions): pH 7.4

Assay [1] addresses Histone deacetylase 3 (Homo sapiens, UniProt O15379). As for the experimental part:
(§1) Briefly, this fluorogenic assays uses an acetylated lysine tripeptide substrate, amide-linked to a fluorescently quenched aminocoumarin (AMC). Enzyme reactions were run in 50 mM HEPES, 100 mM KCl, 0.001% (v/v) Tween-20, 0.05% (w/v) BSA, pH 7.4. The appropriate substrate concentration for each HDAC was determined using their corresponding Km values. Km values were determined by monitoring the increase of fluorescence of each HDAC at varying substrate concentrations. The increase in fluorescence units was plotted versus substrate concentration. Assays corresponding to HDACs 4, 5, 7, 8, 9 involved a trifluoroacetylated lysine substrate as described in Bradner et al, while HDACs 1, 2, 3, and 6 used an acetyl-Leu-Gly-acetyl-Lys tripeptide as the substrate. Reactions were carriedout in 384-well plates and fluorescence was measured using a multi-label plate reader and plate stacker (Envision, Perkin-Elmer).

Assay [2] has as its target T1, Histone deacetylase 7 (Homo sapiens, UniProt Q8WUI4).
T1 sequence (Q8WUI4 whole entry): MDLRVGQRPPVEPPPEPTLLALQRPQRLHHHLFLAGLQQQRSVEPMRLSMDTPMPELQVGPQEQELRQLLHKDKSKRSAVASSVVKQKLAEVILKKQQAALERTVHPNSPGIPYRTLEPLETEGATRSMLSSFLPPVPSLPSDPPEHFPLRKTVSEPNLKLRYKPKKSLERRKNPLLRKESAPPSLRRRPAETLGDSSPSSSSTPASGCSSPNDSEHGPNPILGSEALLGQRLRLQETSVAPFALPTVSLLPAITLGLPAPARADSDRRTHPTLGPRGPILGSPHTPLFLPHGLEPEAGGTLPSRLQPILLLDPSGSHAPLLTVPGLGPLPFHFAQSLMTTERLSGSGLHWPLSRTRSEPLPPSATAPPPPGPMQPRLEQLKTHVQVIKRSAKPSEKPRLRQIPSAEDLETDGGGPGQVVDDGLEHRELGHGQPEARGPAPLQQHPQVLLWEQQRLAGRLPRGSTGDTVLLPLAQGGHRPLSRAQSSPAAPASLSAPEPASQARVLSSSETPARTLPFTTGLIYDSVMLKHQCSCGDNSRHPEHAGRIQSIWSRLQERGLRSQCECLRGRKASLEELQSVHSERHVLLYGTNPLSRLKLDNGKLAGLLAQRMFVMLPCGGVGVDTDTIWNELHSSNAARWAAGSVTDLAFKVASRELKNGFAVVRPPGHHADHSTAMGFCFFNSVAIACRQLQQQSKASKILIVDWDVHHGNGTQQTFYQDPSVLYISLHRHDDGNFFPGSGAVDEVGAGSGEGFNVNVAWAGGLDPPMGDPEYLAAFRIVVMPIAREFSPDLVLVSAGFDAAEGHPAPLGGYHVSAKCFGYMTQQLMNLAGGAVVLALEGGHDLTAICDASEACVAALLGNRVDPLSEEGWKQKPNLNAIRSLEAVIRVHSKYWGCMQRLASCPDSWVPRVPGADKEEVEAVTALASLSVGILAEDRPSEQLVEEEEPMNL
As for the experimental part: as §1

The target in assay [3] is Histone deacetylase 4 (Homo sapiens, UniProt P56524). As for the experimental part: as §1
Chain of Histone deacetylase 4 (P56524 whole entry): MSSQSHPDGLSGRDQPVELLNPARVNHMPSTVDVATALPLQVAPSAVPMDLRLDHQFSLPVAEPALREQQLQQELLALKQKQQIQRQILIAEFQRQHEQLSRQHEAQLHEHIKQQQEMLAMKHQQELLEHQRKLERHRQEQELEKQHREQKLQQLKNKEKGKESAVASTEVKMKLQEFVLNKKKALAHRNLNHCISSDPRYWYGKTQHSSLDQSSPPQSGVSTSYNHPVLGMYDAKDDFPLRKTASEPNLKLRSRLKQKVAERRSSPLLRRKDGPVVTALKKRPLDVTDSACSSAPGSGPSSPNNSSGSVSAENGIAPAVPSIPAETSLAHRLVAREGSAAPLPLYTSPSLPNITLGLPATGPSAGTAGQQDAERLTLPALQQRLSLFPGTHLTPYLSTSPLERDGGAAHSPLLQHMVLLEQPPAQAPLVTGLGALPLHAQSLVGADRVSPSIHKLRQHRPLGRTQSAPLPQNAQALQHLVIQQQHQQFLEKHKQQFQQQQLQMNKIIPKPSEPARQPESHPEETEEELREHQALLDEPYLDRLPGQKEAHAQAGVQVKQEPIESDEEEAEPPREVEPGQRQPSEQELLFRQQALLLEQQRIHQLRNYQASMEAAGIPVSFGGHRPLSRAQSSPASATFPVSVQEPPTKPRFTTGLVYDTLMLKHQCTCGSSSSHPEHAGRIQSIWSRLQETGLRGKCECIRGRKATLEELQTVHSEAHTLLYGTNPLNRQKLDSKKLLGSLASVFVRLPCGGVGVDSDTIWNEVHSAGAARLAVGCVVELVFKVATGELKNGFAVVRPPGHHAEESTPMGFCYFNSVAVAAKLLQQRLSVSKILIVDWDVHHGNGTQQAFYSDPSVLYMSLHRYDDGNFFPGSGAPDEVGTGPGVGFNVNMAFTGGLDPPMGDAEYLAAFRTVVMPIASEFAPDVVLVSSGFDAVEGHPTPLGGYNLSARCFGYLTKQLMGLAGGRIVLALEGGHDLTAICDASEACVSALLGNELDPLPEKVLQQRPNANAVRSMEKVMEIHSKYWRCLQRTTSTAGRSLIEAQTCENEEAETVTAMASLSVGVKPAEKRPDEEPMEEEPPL
Assay [4] concerns the target Histone deacetylase 5 (Homo sapiens, UniProt Q9UQL6). As for the experimental part: as §1
The target in assay [5] is Histone deacetylase 8 [R223M] (Homo sapiens, UniProt Q9BY41, R223M). As for the experimental part:
as §1

In assay [6] the target is Histone deacetylase 2 (Homo sapiens, UniProt Q92769). Here is the method: as §1
Chain of Histone deacetylase 2 (Q92769 whole entry): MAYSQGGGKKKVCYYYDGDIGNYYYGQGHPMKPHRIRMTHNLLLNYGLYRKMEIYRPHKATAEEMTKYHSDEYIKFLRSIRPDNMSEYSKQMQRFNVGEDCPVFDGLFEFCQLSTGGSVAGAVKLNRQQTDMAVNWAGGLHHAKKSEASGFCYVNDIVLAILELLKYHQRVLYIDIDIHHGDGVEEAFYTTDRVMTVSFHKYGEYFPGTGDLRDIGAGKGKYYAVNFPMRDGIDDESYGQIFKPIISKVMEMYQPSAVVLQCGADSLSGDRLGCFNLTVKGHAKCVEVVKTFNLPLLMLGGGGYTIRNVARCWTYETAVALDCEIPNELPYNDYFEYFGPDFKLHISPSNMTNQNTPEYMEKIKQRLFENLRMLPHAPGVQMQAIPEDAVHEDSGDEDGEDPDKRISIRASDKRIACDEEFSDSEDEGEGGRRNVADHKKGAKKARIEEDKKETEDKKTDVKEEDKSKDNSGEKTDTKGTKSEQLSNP
Assay [7] concerns the target Histone deacetylase 1 (Homo sapiens, UniProt Q13547). Here is the method:
as §1

Assay [8] concerns the target Histone deacetylase 9 (Homo sapiens, UniProt Q9UKV0). As for the experimental part: as §1

Chain of Histone deacetylase 3 (O15379 whole entry): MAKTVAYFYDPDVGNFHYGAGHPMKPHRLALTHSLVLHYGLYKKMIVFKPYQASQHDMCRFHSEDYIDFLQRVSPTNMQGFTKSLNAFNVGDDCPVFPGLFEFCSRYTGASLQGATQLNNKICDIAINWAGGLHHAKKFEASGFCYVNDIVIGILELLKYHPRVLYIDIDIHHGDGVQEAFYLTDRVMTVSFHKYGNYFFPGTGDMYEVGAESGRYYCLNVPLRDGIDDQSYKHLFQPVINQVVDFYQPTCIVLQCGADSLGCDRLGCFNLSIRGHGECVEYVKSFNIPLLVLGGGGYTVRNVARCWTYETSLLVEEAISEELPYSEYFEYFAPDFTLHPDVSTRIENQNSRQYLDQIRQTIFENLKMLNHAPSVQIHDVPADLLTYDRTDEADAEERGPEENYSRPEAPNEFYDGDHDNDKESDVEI
Chain of Histone deacetylase 8 [R223M] (Q9BY41 whole entry R223W): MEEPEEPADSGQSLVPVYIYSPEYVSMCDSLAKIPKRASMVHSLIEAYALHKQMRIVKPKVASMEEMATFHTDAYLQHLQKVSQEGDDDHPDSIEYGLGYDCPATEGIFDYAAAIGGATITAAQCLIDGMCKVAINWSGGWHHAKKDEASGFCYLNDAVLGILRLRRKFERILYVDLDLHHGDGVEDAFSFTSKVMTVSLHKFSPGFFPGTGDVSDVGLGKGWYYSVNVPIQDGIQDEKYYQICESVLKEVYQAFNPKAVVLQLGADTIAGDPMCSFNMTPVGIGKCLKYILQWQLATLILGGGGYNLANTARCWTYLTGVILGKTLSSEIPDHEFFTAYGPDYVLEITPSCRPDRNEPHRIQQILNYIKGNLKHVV
Chain of Histone deacetylase 5 (Q9UQL6 whole entry): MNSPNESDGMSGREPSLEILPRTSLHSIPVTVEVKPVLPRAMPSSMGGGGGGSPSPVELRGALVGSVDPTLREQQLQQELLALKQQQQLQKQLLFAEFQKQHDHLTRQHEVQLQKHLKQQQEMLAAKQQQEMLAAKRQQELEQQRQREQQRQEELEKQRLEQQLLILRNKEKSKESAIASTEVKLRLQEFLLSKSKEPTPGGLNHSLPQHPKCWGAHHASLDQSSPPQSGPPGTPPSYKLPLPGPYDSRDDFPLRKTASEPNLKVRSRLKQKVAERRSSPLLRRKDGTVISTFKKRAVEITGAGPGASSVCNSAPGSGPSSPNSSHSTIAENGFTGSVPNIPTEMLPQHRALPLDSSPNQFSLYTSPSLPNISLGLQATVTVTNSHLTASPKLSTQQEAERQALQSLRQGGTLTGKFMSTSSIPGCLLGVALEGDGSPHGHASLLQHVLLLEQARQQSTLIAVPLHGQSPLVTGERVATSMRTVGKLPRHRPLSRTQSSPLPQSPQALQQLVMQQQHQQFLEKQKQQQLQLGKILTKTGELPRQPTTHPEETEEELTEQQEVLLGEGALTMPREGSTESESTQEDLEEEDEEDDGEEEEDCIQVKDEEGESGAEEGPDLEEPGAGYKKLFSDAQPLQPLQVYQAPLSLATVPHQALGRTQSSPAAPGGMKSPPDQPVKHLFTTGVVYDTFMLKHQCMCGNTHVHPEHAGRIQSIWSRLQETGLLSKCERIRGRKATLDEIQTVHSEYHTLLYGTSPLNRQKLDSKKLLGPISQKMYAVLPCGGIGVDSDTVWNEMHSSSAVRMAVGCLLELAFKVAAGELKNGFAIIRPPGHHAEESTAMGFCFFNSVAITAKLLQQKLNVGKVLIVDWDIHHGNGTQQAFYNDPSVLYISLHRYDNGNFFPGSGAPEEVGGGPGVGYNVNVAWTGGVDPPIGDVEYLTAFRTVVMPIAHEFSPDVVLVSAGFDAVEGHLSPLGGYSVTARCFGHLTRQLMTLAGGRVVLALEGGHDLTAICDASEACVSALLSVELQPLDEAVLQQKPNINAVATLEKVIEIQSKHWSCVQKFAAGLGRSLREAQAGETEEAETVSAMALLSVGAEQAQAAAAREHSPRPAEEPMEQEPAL
Chain of Histone deacetylase 1 (Q13547 whole entry): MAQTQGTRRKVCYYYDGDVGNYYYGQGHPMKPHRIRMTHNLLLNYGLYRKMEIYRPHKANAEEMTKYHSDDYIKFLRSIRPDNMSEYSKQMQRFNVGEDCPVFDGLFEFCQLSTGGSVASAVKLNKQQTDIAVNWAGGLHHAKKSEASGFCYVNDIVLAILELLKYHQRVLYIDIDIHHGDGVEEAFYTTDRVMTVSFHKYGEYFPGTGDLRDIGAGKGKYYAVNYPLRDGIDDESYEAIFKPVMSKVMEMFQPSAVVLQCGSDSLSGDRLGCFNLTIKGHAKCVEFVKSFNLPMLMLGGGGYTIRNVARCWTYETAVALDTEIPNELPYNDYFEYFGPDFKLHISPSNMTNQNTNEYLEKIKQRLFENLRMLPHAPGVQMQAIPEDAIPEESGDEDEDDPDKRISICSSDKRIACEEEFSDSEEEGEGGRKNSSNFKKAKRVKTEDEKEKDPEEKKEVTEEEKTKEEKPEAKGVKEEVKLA
Chain of Histone deacetylase 9 (Q9UKV0 whole entry): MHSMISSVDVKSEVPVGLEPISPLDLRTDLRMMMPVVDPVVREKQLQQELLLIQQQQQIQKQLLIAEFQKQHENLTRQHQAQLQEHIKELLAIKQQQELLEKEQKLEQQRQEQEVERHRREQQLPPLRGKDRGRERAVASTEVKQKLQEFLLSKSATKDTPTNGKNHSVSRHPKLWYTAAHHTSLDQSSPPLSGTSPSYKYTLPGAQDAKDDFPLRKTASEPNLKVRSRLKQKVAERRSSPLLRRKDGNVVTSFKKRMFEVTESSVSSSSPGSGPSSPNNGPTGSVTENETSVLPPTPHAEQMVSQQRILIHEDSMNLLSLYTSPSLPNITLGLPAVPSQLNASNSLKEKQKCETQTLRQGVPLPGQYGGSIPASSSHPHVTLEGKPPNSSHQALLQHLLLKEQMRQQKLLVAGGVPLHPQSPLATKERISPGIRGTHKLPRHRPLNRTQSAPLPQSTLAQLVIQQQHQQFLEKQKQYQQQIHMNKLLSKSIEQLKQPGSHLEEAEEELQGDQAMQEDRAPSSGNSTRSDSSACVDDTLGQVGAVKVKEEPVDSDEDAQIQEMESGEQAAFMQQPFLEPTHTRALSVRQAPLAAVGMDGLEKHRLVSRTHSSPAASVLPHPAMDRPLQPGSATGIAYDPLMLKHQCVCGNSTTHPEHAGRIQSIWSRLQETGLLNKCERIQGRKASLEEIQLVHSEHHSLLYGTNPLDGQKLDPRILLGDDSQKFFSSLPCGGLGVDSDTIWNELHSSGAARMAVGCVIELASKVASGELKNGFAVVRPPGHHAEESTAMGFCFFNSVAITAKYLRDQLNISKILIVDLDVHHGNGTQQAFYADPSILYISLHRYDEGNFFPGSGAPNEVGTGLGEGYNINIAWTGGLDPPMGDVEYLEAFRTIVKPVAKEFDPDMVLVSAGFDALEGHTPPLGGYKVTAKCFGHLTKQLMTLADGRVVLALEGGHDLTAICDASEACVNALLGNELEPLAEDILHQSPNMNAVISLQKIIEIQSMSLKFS

By IC50 is commonly meant the midpoint of a concentration-inhibition curve. High values mean lower potency, low ones higher potency. For the compound `CCN1CCN(C(c2cccnc2)c2cc(Cl)c3cccnc3c2O)CC1` (stereo not drawn) [5-chloranyl-7-[(4-ethylpiperazin-1-yl)-pyridin-3-yl-methyl]quinolin-8-ol], the IC50 was 65.1 µM in assay [1]; 8.44 µM in assay [2]; 13.8 µM in assay [3]; 0.85 µM in assay [4]; 3.89 µM in assay [5]; 67.2 µM in assay [6]. The results for the half-inhibitory concentration (IC50) in assay [7] and in assay [8] were 40.4 µM and 1.88 µM, respectively.
